# Assay results published in publication PMC9504178 (Viruses, 2022).
# Experiments:
# [1] = system: NL09 or NL11; type: cell-based, influenza A virus
# [2] = system: NL09 and NL11 strains; type: cell-based, influenza A virus
Structure (SMILES),reduction of viral titers in hPCLSs [1],viral reduction in A549 cells [2],viral reduction in hPCLSs [1]
"CN(C)C/C=C/C(=O)Nc1cc2c(Nc3ccc(F)c(Cl)c3)ncnc2cc1O[C@H]1CCOC1 [AF, afatinib]",more than 1000 fold,–,–
"Cn1cc(-c2cc3c(N4CCN(c5ncc([C@@](C)(N)c6ccc(F)cc6)cn5)CC4)ncnn3c2)cn1 [AV, avapritinib]",~ 10 fold,–,–
"CNC(=O)c1cc(Oc2ccc(NC(=O)Nc3ccc(Cl)c(C(F)(F)F)c3)c(F)c2)ccn1 [RG, regorafenib]",more than 1000 fold,~ 2 log10,~ 4 log10
